Results taken from the NIST ThermoML archive (doi:10.1021/acs.jced.8b00349).
± gives the expanded uncertainty stated by the source.

Key:
[1] = mn = molality of the nth substance listed, in mol/kg; details: 101 kPa, Liquid; for viscosity: Falling or rolling sphere viscometry; for speed of sound: Frequency=3 MHz, Single path-length method; for mass density: Vibrating tube method
[2] = 101 kPa, Liquid, Falling or rolling sphere viscometry

NCC(=O)O [2-aminoacetic acid] + O
[1], m1 = 0.06
Details	mass density [kg/m3]	speed of sound [m/s]	viscosity [mPa·s]
293.15 K	1000.19 ± 0.13	1485.8 ± 1.1	1.012 ± 0.021
298.15 K	999.024 ± 0.11	1499.6 ± 1	0.908 ± 0.021
303.15 K	997.613 ± 0.11	1511.8 ± 1	0.811 ± 0.021
308.15 K	995.985 ± 0.11	1522.4 ± 1	0.733 ± 0.021
313.15 K	994.125 ± 0.13	1531.4 ± 1.1	0.666 ± 0.021

O [water]
[2]
Details	viscosity [mPa·s]
293.15 K	1.005 ± 0.021
298.15 K	0.894 ± 0.021
303.15 K	0.801 ± 0.021
308.15 K	0.723 ± 0.021
313.15 K	0.656 ± 0.021

O [water] + C[n+]1ccn(CCCCCn2cc[n+](C)c2)c1.[Br-].[Br-]
[1], m2 = 0
Details	speed of sound [m/s]	viscosity [mPa·s]
293.15 K	–	1.005 ± 0.021
298.15 K	–	0.894 ± 0.021
303.15 K	–	0.801 ± 0.021
308.15 K	–	0.723 ± 0.021
313.15 K	1529.2 ± 1	0.656 ± 0.021

O [water] + C[n+]1ccn(CCCCn2cc[n+](C)c2)c1.[Br-].[Br-]
[1], m2 = 0
Details	speed of sound [m/s]	viscosity [mPa·s]
293.15 K	–	1.005 ± 0.021
298.15 K	–	0.894 ± 0.021
303.15 K	–	0.801 ± 0.021
308.15 K	–	0.723 ± 0.021
313.15 K	1529.2 ± 1	0.656 ± 0.021

O [water] + C[n+]1ccn(CCCn2cc[n+](C)c2)c1.[Br-].[Br-]
[1], m2 = 0
Details	speed of sound [m/s]	viscosity [mPa·s]
293.15 K	–	1.005 ± 0.021
298.15 K	–	0.894 ± 0.021
303.15 K	–	0.801 ± 0.021
308.15 K	–	0.723 ± 0.021
313.15 K	1529.2 ± 1	0.656 ± 0.021
